In article PMC7054748, “The identification and characterisation of autophagy inhibitors from the published kinase inhibitor sets” (Biochemical Journal, 2020):
Values joined by “and” are separate entries in the source; they are usually repeats but may differ in a detail not shown here. Equal entries are not always repeated.

Columns and labels:
[1] = system: LC3 flux in U2OS cells; assay: Autophagic flux: LC3-II western blot with/without BafA1 in U2OS cells; assay type: cell-based, human; conditions: U2OS
Description: (§1) U2OS (human osteosarcoma-derived) cells were cultured in DMEM supplemented with 10% foetal bovine serum, 100 U/ml Penicillin and […] L-glutamine. Cells were pre-treated with compounds at the indicated concentrations for 60 min followed by treatments with EBSS or EBSS combined with/without 50 nM Bafilomycin A1 (Enzo Life Sciences) for a further 60 or 120 min with/without inhibitors, as indicated in figures/figure legends.
(§2) Prior to western blot analysis, cells were washed twice in ice-cold PBS and lysed in buffer containing 50 mM HEPES pH 7.4, 150 mM NaCl, 1 mM EDTA, 10% Glycerol, 0.5% NP-40, 1 mM DTT, supplemented with phosphatase inhibitors (1.15 mM sodium molybdate, 4 mM sodium tartrate, 0.01 M β-glycerophosphate, 1 mM sodium fluoride, 1 mM sodium orthovanadate) and protease inhibitor tablets (Roche) according to manufacturer's instructions. Lysates were then spun at 20 000×g for 10 min and the supernatant was collected for protein content estimation using Protein Assay Dye Reagent Concentrate from Bio-Rad. 4× LDS was added to the lysate (final dilution 1×) prior to heating at 95°C for 5 min. Electrophoresis and transfer to PVDF membranes was performed using standard protocols. Membranes were blocked in 5% milk in TBS-T prior to incubation with primary antibodies (in 5% milk/TBS-T for ULK1, pS555 (human S556) ULK1, pS757 (human S758) ULK1, pS318-ATG13, ATG13, and in 5% BSA/TBS-T for LC3 and α-Tubulin) under rotation overnight at 4°C followed by washes in TBS-T and incubation with HRP-conjugated secondary antibodies (in 5% milk in TBS-T) for 60 min at room temperature. Membranes were washed in TBS-T before application of ECL reagent (GE healthcare) and development on hypersensitive X-ray films (GE healthcare) (Figures 5A, 6C and Supplementary Figure S7C) or using BIO-RAD Clarity^TM western blotting substrate (Supplementary Figure S6C and Supplementary Figure S7A) and a BIO-RAD ChemiDoc^TM imaging system.
(§3) Quantification of western blots was performed with band densitometry analysis using ImageJ. Quantification of LC3 puncta was performed using either the ITCN plugging in ImageJ or Volocity. One-way or two-way Anova (using GraphPad Prism) followed by a post-hoc test, was used for statistical analysis of western blots and immunofluorescence as indicated in figure legends.

[2] = system: VPS34 (WIPI2 puncta); assay: Cellular VPS34 activity: WIPI2 puncta immunofluorescence in U2OS cells; assay type: cell-based, human
Description: as §1
Prior to immunofluorescence, cells were grown on glass coverslips to ∼60% confluency. Cells were washed in PBS prior to fixation with 3.7% PFA/10 mM HEPES pH 7.0 at room temperature for 20 min. PFA was quenched using DMEM/10 mM HEPES pH 7.0/0.02% NaN3, followed by permeabilisation with 0.2% NP-40 in PBS for 5 min, followed by blocking with 1% BSA/PBS/0.02% NaN3. Primary antibody incubation was at room temperature for 60 min, followed by two 10-minute washes, then fluorescent secondary antibody incubation for 30 min and further washes (all in blocking buffer) before mounting onto glass slides. A wide field Nikon TS microscope was used for image capturing.
as §3

[3] = system: mTOR (ULK1 pS758); assay: Upstream mTOR activity: ULK1 pS758 western blot in U2OS cells; assay type: cell-based, human; conditions: 100 nM (VPS34-IN1 500 nM), 60 min pre-treatment, ± EBSS 60 min
Description: as §1
as §2, with “Lysates” for “Prior to western blot analysis, cells were washed twice in ice-cold PBS and lysed in buffer containing 50 mM HEPES pH 7.4, 150 mM NaCl, 1 mM EDTA, 10% Glycerol, 0.5% NP-40, 1 mM DTT, supplemented with phosphatase inhibitors (1.15 mM sodium molybdate, 4 mM sodium tartrate, 0.01 M β-glycerophosphate, 1 mM sodium fluoride, 1 mM sodium orthovanadate) and protease inhibitor tablets (Roche) according to manufacturer's instructions. Lysates”
as §3

[4] = target: AMPK α1β2ɣ1 (Homo sapiens, UniProt O43741+P54619+Q13131); assay: AMPK ADP Hunter Plus kinase activity assay
AMPK α1β2ɣ1, sequence (Q13131 whole entry): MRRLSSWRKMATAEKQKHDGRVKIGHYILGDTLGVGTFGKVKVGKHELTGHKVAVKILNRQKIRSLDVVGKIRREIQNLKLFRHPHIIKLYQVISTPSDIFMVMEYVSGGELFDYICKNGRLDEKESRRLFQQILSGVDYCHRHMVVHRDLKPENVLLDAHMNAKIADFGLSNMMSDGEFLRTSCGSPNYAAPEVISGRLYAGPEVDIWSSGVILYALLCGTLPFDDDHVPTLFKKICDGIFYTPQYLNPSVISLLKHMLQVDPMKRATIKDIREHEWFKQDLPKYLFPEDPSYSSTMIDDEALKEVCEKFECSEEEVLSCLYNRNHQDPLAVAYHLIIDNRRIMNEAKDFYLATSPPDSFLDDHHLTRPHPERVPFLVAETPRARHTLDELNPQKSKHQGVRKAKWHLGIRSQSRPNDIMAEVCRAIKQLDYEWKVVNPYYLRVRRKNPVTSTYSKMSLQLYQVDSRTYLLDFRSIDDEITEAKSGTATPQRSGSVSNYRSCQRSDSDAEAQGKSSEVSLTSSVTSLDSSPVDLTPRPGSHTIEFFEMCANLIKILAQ
AMPK α1β2ɣ1, sequence (O43741 whole entry partner): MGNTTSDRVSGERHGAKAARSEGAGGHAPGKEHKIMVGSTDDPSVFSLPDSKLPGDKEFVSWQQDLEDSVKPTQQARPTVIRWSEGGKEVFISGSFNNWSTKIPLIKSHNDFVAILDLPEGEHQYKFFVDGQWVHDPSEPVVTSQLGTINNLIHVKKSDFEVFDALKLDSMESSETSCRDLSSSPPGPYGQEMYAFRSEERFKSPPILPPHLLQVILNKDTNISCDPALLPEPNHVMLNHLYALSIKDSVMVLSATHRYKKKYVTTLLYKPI
AMPK α1β2ɣ1, sequence (P54619 whole entry partner): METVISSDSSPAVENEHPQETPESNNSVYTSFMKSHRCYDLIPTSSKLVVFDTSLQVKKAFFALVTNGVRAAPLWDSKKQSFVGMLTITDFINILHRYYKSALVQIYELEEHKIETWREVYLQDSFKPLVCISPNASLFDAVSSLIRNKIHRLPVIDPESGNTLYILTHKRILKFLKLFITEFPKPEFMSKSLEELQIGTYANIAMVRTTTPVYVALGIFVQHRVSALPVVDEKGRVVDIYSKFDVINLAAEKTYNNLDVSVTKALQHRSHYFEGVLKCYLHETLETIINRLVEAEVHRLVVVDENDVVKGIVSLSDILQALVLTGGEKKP

[5] = system: PI3Kδ; design: method as in ChEMBL database; conditions: statement in discussion on published selectivity; ref ChEMBL database; cited from earlier work
[6] = target: VPS34 (Homo sapiens, UniProt Q8NEB9); assay: VPS34 ADP Hunter Plus kinase activity assay
VPS34, sequence (Q8NEB9 whole entry): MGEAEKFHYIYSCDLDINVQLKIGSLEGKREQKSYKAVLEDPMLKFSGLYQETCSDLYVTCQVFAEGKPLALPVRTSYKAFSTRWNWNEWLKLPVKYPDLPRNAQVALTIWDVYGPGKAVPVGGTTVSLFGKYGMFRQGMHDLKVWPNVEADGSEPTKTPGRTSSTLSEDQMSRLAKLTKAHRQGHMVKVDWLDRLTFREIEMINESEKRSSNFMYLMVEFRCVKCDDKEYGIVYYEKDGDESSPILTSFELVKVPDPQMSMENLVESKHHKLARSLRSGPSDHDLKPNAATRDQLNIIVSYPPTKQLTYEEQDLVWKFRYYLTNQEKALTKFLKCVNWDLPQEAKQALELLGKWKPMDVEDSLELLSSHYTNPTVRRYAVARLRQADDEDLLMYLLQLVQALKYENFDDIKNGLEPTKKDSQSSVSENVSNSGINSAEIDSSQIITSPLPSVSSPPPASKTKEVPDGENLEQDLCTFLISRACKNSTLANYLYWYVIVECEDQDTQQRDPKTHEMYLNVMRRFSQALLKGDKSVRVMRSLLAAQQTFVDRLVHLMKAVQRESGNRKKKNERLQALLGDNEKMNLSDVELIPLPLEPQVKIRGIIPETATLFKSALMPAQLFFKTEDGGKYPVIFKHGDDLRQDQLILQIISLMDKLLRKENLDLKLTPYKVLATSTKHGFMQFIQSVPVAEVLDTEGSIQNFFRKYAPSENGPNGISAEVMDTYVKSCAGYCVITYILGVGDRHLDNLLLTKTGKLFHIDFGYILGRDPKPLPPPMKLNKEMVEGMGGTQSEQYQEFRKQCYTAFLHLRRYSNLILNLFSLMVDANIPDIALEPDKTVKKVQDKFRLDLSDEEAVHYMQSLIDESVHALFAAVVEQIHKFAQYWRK

[7] = system: AMPK (ULK1 pS556); assay: Upstream AMPK activity: ULK1 pS556 western blot in U2OS cells; assay type: cell-based, human; conditions: 100 nM (VPS34-IN1 500 nM), 60 min pre-treatment, ± EBSS 60 min
Description: as §1
as §2, with “Lysates” for “Prior to western blot analysis, cells were washed twice in ice-cold PBS and lysed in buffer containing 50 mM HEPES pH 7.4, 150 mM NaCl, 1 mM EDTA, 10% Glycerol, 0.5% NP-40, 1 mM DTT, supplemented with phosphatase inhibitors (1.15 mM sodium molybdate, 4 mM sodium tartrate, 0.01 M β-glycerophosphate, 1 mM sodium fluoride, 1 mM sodium orthovanadate) and protease inhibitor tablets (Roche) according to manufacturer's instructions. Lysates”
as §3

[8] = target: T1, ULK1 (Homo sapiens, UniProt O75385); assay: ULK1 ADP Hunter Plus kinase activity assay; assay type: biochemical; conditions: resynthesized samples; mean potency in parenthesis, n = 5; read-out: IC50 against ULK1 (converted)
T1 construct: purchased MRC PPU Reagents and Services, Dundee, Scotland
T1 sequence (O75385 1-1050): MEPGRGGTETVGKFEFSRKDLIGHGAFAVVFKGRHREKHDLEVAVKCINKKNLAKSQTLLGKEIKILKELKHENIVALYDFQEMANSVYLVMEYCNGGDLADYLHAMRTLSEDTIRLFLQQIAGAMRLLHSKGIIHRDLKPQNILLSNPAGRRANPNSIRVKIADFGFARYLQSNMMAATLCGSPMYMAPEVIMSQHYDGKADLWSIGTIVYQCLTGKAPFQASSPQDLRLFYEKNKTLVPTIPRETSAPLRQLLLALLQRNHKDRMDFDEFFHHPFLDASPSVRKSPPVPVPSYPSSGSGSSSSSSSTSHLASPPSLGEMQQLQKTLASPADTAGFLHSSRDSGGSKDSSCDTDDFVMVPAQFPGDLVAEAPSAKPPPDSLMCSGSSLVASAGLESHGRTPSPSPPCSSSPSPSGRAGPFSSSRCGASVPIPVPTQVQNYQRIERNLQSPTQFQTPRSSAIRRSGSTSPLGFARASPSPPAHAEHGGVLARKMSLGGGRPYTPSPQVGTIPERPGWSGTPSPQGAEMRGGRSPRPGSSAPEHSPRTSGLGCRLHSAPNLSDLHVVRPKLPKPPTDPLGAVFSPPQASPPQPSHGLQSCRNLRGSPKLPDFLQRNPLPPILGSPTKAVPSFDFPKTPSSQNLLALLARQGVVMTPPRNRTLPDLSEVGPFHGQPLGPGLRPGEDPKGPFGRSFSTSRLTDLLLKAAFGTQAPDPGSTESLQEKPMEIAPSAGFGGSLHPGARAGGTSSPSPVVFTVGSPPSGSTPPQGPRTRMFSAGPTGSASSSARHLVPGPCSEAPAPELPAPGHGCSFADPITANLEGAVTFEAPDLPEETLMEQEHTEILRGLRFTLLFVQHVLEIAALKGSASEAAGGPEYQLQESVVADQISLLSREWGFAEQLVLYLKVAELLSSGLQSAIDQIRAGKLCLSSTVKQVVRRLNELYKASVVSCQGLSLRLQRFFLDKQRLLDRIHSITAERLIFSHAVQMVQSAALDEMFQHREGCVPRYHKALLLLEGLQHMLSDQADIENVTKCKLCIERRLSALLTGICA

IC50 [4]: > 100000 nM
IC50 ([6]; IC50 against VPS34, resynthesized samples, mean potency in parenthesis, n = 5): 8.6 nM and 9 nM
IC50 ([6]; pIC50 against VPS34, original PKIS samples, concentration-dependent retest of screen hits): < 1000 nM
IC50 ([6]; pIC50 against VPS34, resynthesized samples, 50 µM ATP (KM app), mean ± SD, n = 5): 8.51 nM
Mechanism of inhibition of VPS34 with respect to ATP ([6]; varying ATP below 200 µM, Michaelis–Menten and Lineweaver–Burk plots): primarily ATP competitive inhibition
Mechanism of inhibition of VPS34 with respect to PI:PS ([6]; varying PI:PS below 12 µM): clear non-competitive inhibition
IC50 [8]: > 100000 nM
Compound: O=c1cc(N2CCOCC2)nc2n(Cc3cccc(Cl)c3Cl)c(C3CC3)nn12 [GSK2358994A]
Effect on LC3 flux under EBSS starvation ([1]; 100 nM, 60 min pre-treatment then 60 min EBSS): significantly reduced LC3 flux
Concentration blocking EBSS-induced autophagy (LC3) flux ([1]; EBSS + 50 nM BafA1, as low as, greater effect at 100 nM): ≤ 10 nM
Effect on EBSS-induced WIPI2 puncta ([2]; 100 nM, 60 min pre-treatment then 60 min EBSS, vs EBSS only): significantly reduced
Concentration working in cells (WIPI2 puncta reduction) ([2]; EBSS, as low as): ≤ 100 nM
Effect on mTORC1 activity (pS758 ULK1) [3]: unaffected
Potency against PI3Kδ [5]: potent against PI3Kδ
Effect on AMPK activity (pS556 ULK1) [7]: unaffected
